Assay results published in patent US20220275390A1, “RUBISCO-BINDING PROTEIN MOTIFS AND USES THEREOF” (The Trustees of Princeton University, priority 2019, published 2022).
Residues, ends and D or L forms follow the SMILES beside them.

Experiments:
[1] = target: T1, Rubisco (Chlamydomonas reinhardtii, UniProt P00873); assay: Surface plasmon resonance (SPR) assay of peptides binding to immobilized Rubisco
T1 construct: Rubisco was purified from Chlamydomonas reinhardtii strain cMJ030; endogenous in cells; host or cells: Chlamydomonas reinhardtii strain cMJ030 (wild type); holoenzyme purified from lysate by sucrose gradient and anion exchange
Experimental: Surface Plasmon Resonance (SPR) Assay Rubisco was immobilized on a surface and peptides in solution were flowed over the surface. Surface plasmon measurements of binding of individual peptides to Rubisco were assayed (FIG. 3B).
Rubisco was purified from Chlamydomonas reinhardtii strain cMJ030. Cells were disrupted by ultrasonication in lysis buffer (10 mM MgCl2, 50 mM Bicine, 10 mM NaHCO3, 1 mM dithiothreitol (DTT) pH 8.0) supplemented with Halt Protease Inhibitor Cocktail, EDTA-Free (Fisher Scientific). The soluble lysate was fractionated by ultracentrifuge in a 10%-30% sucrose gradient in a SW 41 Ti rotor at 35,000 rpm for 20 hours at 4° C. Rubisco-containing fractions were applied to an anion exchange column (MONO Q 5/50 GL, GE Healthcare) and fractionated by using a linear salt gradient from 0 to 0.5 M NaCl (10 mM MgCl2, 50 mM Bicine, 10 mM NaHCO3, 1 mM dithiothreitol pH 8.0).
Mutagenesis of EPYC1, Mutagenesis of Rubisco, Yeast Two-hybrid, Peptide Arrays and SPR Assays To determine the importance of individual EPYC1 residues for binding to Rubisco, the impact on Rubisco binding of every possible single amino acid substitution for EPYC1 RBM 2 was determined (FIG. 8). […]
SPR Assays: The Rubisco-binding capacity for the C-terminal motif variant (W[+]xxΨ ) was determined using SPR by probing purified Rubisco with fifteen amino acid-long synthetic peptides. […]

[2] = system: C. reinhardtii cells; assay: Confocal fluorescence microscopy localization of Venus fusion proteins; assay type: cell-based, Chlamydomonas reinhardtii; conditions: Venus fluorescence in C. reinhardtii cells
Excerpt: A synthetic […] (Invitrogen) containing a 643 bp restriction fragment containing the C-terminus of Venus, followed by the sequence coding for the FLAG-tag sequence, and a sequence coding for three repetitions of the 15 C-terminal amino acids of SAGA2, was cloned into pLM005-FDX1, after restriction digestion with EcoRl and PfIMI. GenBank accession number of the empty pLM005 is KX077945.1. The plasmid pLM005-FDX1 is identical to pLM005 with the genomic sequence of FDX1 cloned in frame by Gibson Assembly (Mackinder et al., PNAS 113: 5958-5963, 2015) between residues 2698 and 3234. The terminal 85 amino acids of resultant mature fusion protein, immediately downstream of the FLAG-tag, were a 5 aa linker (GGGGS; SEQ ID NO: 87), a first copy of SAGA2 15 C-terminal aa, followed by a 10 aa linker (2X GGGGS; SEQ ID NO: 88), a second copy of SAGA2 15 last aa, another 10 aa linker (2X GGGGS; SEQ ID NO: 88), and finally a third copy of SAGA2 15 last aa. The sequence of the EcoRI-PfIMI digestion fragment (SEQ ID NO: 89) was cloned in frame into pLM005-FDX1.
Culturing and Transformation of C. reinhardtii: Culturing and transformation of C. reinhardtii for fluorescence localization of protein and imaging was performed as described in Mackinder et al. (PNAS 113: 5958-5963, 2015). […]

T1 sequence (P00873 46-185, other chains not shown): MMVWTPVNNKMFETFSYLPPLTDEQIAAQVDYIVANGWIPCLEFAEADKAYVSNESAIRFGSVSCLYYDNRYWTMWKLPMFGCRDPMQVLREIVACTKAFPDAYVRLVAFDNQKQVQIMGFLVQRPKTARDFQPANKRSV

CC(C)C[C@H](NC(=O)[C@H](CO)NC(=O)[C@H](CCC(=O)O)NC(=O)[C@H](CC(C)C)NC(=O)[C@H](CCC(=O)O)NC(=O)[C@H](CCC(N)=O)NC(=O)[C@H](CCCNC(=N)N)NC(=O)[C@H](Cc1c[nH]c2ccccc12)NC(=O)[C@H](CC(N)=O)NC(=O)[C@H](C)NC(=O)[C@@H]1CCCN1C(=O)[C@H](CC(C)C)NC(=O)[C@@H](NC(=O)[C@H](CO)NC(=O)[C@H](CCCNC(=N)N)NC(=O)[C@@H](NC(=O)[C@@H]1CCCN1C(=O)[C@H](CO)NC(=O)[C@@H](NC(=O)[C@H](CCCNC(=N)N)NC(=O)[C@H](CC(N)=O)NC(=O)[C@@H](N)[C@@H](C)O)C(C)C)[C@@H](C)O)C(C)C)C(=O)N[C@@H](CCCNC(=N)N)C(=O)N[C@@H](CC(N)=O)C(=O)O [EPYC1 fragment] (H-TNRVSPTRSVLPANWRQELESLRN-OH)
Kd ([1]; KD, 24 amino acid EPYC1 fragment spanning RBM 2 binding to Rubisco, FIG. 4C): 3.09 mM
Kd ([1]; Kd, individual EPYC1 RBM peptides binding to Rubisco): 3 mM

RBMP2-Venus: Rubisco-Binding Membrane Protein 2 (SEQ ID NO: 2) fused to the Venus fluorescent protein
localization pattern within the pyrenoid ([2]; FIG. 15): confined to the very heart of the pyrenoid
localization ([2]; FIGS. 14B and 15): localized to the pyrenoid
